The values that follow come from ChEMBL document CHEMBL3132769, “Fragment growing to retain or alter the selectivity of anchored kinase hinge-binding fragments” (Medchemcomm, 2014).

Assay [1] concerns the target Receptor-type tyrosine-protein kinase FLT3 (Homo sapiens) (UniProt P36888). Put plainly: Inhibition of human FLT3 catalytic domain expressed in baculovirus assessed as substrate phosphorylation using fluorescence-labelled peptides as substrate at 8 uM after 90 mins by microfluidic peptide phosphorylation assay.
Assay [2] deals with Protein kinase C beta type (Homo sapiens) (UniProt P05771). Put plainly: Inhibition of human truncated PKC beta1 expressed in baculovirus assessed as substrate phosphorylation using fluorescence-labelled peptides as substrate at 8 uM after 90 mins by microfluidic peptide phosphorylation assay.
Assay [3] has as its target MAP kinase p38 (Homo sapiens) (UniProt O15264+Q15759+Q16539+P53778). Put plainly: Inhibition of human full length p38 beta2 expressed in Escherichia coli cell assessed as substrate phosphorylation using fluorescence-labelled peptides as substrate at 420 uM after 90 mins by microfluidic peptide phosphorylation assay.
Assay [4] addresses Tyrosine-protein kinase Fer (Homo sapiens) (UniProt P16591). The conditions noted are these: 0.1 uM.
Description: Inhibition of human FER catalytic domain expressed in baculovirus assessed as substrate phosphorylation using fluorescence-labelled peptides as substrate at 0.1 uM after 90 mins by microfluidic peptide phosphorylation assay
The target of assay [5] is Mitogen-activated protein kinase kinase kinase kinase 4 (Homo sapiens) (UniProt O95819). Put plainly: Inhibition of human HGK catalytic domain expressed in baculovirus assessed as substrate phosphorylation using fluorescence-labelled peptides as substrate at 0.2 uM after 90 mins by microfluidic peptide phosphorylation assay.
In assay [6] the target is T1, Protein kinase C zeta type (Homo sapiens) (UniProt Q05513).
T1 sequence (whole entry): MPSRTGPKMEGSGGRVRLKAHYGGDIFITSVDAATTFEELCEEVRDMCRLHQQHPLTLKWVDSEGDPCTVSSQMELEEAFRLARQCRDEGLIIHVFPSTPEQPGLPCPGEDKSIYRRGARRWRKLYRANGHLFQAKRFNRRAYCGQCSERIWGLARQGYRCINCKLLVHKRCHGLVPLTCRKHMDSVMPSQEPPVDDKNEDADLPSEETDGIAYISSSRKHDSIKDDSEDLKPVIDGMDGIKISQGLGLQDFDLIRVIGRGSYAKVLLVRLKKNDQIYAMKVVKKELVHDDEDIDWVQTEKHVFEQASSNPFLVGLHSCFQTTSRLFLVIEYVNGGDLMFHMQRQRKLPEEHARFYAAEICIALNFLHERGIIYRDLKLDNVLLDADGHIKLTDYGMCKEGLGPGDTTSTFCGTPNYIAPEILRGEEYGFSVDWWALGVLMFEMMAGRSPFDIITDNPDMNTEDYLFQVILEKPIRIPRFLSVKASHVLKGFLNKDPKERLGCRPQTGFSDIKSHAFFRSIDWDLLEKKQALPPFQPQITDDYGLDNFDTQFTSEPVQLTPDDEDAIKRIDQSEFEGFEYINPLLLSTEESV
Put plainly: Inhibition of human full length PKC zeta expressed in baculovirus assessed as substrate phosphorylation using fluorescence-labelled peptides as substrate at 0.2 uM after 90 mins by microfluidic peptide phosphorylation assay.

The target of assay [7] is MAP kinase-activated protein kinase 3 (Homo sapiens) (UniProt Q16644). As to the kind of experiment: Inhibition of human full length MAPKAPK3 expressed in Escherichia coli cell assessed as substrate phosphorylation using fluorescence-labelled peptides as substrate at 70 uM after 90 mins by microfluidic peptide phosphorylation assay.
The target in assay [8] is MAP/microtubule affinity-regulating kinase 3 (Homo sapiens) (UniProt P27448). As to the kind of experiment: Inhibition of human full length c-TAK1 expressed in Escherichia coli cell assessed as substrate phosphorylation using fluorescence-labelled peptides as substrate at 70 uM after 90 mins by microfluidic peptide phosphorylation assay.
Assay [9] deals with Mitogen-activated protein kinase kinase kinase kinase 4 (Homo sapiens) (UniProt O95819). As to the kind of experiment: Inhibition of human HGK catalytic domain expressed in baculovirus assessed as substrate phosphorylation using fluorescence-labelled peptides as substrate at 70 uM after 90 mins by microfluidic peptide phosphorylation assay.
Assay [10] concerns the target Protein kinase C beta type (Homo sapiens) (UniProt P05771). As to the kind of experiment: Inhibition of human full length PKC beta2 expressed in baculovirus assessed as substrate phosphorylation using fluorescence-labelled peptides as substrate at 95 uM after 90 mins by microfluidic peptide phosphorylation assay.
Assay [11] has as its target Protein kinase C theta type (Homo sapiens) (UniProt Q04759). As to the kind of experiment: Inhibition of human truncated PKC theta expressed in baculovirus assessed as substrate phosphorylation using fluorescence-labelled peptides as substrate at 95 uM after 90 mins by microfluidic peptide phosphorylation assay.
The target of assay [12] is T2, Calcium/calmodulin-dependent protein kinase type IV (Homo sapiens) (UniProt Q16566).
T2 sequence (whole entry): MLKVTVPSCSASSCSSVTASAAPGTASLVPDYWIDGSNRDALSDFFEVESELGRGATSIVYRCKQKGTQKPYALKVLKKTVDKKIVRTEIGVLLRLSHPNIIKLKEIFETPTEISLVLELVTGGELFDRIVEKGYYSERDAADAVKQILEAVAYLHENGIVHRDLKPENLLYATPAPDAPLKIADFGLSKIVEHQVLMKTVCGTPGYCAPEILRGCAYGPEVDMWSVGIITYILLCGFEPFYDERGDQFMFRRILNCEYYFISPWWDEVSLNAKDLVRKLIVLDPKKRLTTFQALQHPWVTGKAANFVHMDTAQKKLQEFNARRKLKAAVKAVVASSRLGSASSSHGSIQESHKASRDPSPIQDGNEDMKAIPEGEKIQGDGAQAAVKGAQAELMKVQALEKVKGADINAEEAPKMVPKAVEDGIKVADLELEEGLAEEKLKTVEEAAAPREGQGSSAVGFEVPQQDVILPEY
As to the kind of experiment: Inhibition of human full length CAMK4 expressed in baculovirus assessed as substrate phosphorylation using fluorescence-labelled peptides as substrate at […] after 90 mins by microfluidic peptide phosphorylation assay.

The target in assay [13] is RAF proto-oncogene serine/threonine-protein kinase (Homo sapiens) (UniProt P04049). As to the kind of experiment: Inhibition of human truncated c-Raf expressed in baculovirus assessed as substrate phosphorylation using fluorescence-labelled peptides as substrate at […] after 90 mins by microfluidic peptide phosphorylation assay.
RAF proto-oncogene serine/threonine-protein kinase (Homo sapiens), sequence (P04049 whole entry, the tested form may be a part): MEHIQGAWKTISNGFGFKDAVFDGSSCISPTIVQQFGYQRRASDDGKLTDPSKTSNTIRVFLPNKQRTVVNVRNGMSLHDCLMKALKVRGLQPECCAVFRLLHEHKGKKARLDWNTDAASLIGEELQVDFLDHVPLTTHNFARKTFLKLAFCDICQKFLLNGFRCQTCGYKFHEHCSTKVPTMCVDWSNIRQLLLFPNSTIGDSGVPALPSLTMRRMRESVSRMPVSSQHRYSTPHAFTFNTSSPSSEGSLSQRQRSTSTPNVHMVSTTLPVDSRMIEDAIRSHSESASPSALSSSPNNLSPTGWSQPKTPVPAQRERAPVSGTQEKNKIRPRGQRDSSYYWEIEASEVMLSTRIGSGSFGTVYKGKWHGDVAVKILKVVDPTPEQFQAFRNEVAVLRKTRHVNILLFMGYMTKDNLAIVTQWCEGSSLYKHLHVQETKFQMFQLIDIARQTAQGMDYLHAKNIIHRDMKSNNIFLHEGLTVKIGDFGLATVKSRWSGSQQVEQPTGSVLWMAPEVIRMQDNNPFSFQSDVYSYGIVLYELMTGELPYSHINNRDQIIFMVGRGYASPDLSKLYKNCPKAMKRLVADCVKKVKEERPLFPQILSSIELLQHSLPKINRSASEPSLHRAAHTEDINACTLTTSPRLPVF

Protein kinase C beta type (Homo sapiens), sequence (P05771 2-671 limits assumed): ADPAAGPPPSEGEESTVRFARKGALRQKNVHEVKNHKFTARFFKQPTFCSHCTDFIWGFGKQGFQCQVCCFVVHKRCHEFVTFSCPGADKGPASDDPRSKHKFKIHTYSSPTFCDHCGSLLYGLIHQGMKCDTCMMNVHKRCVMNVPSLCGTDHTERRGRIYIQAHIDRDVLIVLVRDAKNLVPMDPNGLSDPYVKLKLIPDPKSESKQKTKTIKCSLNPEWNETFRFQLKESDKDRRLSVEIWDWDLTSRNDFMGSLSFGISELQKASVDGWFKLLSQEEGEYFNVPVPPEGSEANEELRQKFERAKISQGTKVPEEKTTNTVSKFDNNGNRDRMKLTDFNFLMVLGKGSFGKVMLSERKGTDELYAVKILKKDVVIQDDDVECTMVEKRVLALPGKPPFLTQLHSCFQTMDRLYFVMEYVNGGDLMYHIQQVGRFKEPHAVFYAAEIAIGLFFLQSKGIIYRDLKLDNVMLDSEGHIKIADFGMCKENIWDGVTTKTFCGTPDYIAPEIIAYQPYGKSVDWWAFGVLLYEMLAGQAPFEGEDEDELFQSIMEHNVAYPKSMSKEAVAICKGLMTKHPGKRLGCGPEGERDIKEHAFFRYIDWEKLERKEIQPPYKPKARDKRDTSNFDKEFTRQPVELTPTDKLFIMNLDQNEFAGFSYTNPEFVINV
Mitogen-activated protein kinase kinase kinase kinase 4 (Homo sapiens), sequence (O95819 2-1239 limits assumed): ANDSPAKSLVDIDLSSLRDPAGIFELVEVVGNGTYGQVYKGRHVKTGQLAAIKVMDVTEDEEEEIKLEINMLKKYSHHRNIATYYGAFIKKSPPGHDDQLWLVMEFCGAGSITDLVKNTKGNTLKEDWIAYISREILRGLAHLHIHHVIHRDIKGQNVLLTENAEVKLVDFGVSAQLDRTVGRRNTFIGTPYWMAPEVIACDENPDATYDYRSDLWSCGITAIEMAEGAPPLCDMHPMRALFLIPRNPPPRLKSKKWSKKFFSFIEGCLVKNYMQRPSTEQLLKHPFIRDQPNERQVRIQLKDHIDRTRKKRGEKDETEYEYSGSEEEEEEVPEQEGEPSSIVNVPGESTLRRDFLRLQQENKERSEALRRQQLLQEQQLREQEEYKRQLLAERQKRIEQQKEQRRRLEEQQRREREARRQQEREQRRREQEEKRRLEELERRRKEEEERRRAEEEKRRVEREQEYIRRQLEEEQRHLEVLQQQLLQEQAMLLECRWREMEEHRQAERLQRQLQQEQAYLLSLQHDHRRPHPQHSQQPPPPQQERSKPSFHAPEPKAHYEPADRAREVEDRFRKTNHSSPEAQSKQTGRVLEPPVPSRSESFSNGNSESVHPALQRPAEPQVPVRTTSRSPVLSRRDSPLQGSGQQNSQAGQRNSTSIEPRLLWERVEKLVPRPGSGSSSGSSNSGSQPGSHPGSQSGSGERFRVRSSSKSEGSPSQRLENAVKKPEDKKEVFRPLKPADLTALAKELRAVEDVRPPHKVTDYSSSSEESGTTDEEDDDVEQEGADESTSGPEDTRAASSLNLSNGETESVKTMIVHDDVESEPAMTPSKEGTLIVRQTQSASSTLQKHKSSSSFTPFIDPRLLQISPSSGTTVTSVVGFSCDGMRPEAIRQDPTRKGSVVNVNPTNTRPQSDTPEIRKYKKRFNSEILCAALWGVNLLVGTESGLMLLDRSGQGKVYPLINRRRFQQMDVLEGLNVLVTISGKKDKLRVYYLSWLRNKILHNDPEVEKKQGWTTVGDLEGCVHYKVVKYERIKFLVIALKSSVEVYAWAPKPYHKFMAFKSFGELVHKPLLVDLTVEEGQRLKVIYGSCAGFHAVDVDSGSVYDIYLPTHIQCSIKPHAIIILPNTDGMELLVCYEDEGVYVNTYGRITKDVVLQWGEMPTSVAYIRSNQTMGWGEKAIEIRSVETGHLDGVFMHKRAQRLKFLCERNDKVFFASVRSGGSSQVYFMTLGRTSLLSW
MAP kinase-activated protein kinase 3 (Homo sapiens), sequence (Q16644 whole entry, looked up): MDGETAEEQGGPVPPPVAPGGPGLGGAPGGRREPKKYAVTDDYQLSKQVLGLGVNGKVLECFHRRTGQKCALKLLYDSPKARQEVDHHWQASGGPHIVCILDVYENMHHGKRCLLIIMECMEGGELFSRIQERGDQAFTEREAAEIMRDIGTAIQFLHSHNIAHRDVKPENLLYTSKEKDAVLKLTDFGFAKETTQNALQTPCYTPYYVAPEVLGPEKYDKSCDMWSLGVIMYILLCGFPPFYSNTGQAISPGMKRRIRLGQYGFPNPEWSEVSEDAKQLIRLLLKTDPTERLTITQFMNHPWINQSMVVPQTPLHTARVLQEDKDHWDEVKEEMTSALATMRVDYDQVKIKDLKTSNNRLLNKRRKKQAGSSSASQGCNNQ
Receptor-type tyrosine-protein kinase FLT3 (Homo sapiens), sequence (P36888 whole entry, the tested form may be a part): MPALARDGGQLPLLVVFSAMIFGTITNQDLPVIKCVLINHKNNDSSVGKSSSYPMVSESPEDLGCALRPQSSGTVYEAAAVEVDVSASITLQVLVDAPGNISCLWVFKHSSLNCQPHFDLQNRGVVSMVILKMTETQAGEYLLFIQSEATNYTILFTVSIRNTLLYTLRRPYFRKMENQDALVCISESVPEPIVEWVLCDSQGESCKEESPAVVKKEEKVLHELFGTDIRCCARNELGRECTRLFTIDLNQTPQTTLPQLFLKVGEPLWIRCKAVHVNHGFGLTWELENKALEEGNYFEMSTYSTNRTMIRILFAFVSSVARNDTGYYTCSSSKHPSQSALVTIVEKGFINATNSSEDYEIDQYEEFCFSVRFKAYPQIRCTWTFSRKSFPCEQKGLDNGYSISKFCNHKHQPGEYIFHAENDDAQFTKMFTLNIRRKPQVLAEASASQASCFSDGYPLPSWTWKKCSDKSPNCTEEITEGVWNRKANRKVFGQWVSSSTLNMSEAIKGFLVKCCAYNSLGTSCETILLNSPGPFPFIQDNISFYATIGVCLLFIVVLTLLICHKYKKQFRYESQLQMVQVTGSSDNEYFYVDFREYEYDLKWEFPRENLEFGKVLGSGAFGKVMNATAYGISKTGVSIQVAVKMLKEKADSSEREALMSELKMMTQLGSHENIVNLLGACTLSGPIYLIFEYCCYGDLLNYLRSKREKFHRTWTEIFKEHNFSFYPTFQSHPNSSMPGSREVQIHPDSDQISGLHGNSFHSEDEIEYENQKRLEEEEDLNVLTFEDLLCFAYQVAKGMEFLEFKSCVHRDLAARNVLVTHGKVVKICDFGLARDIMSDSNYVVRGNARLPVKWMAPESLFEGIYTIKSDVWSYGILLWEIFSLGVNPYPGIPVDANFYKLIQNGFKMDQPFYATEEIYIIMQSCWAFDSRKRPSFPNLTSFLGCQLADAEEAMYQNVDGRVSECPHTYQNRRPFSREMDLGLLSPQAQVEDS
Protein kinase C theta type (Homo sapiens), sequence (Q04759 whole entry, looked up, the tested form may be a part): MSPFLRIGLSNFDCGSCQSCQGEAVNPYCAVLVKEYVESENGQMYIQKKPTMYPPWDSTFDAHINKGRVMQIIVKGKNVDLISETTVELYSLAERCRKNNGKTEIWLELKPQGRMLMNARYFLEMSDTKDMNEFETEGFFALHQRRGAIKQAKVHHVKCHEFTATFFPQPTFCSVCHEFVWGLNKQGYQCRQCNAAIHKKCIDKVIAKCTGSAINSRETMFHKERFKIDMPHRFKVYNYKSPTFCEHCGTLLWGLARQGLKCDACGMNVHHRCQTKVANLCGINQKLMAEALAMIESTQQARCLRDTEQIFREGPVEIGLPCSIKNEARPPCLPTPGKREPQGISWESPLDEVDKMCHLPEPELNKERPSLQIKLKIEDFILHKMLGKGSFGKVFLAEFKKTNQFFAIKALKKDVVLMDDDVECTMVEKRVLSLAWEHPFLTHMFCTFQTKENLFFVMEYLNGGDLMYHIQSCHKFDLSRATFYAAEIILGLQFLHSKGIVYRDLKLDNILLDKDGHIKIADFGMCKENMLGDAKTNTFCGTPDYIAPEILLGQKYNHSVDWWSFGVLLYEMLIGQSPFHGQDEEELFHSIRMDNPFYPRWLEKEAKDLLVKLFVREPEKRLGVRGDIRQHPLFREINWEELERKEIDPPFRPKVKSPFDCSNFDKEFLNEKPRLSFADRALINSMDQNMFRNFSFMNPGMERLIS

In the case of `NCC1CCN(c2ncnc3[nH]ccc23)CC1`, the inhibition in [1] is 0%; in [2] it was 50.5%.
For `c1nc(N2CCOCC2)c2nc[nH]c2n1`, the inhibition in assay [3] stood at 1.5%.
`C[C@H](CN(C)C)Oc1nc(Nc2cc3cccc(Cl)c3cn2)cnc1C#N` had an inhibition in assay [4] of 0%.
On to `Clc1ccc(C2(c3ccc(-c4ncnc5[nH]cnc45)cc3)CCNCC2)cc1`, for which the inhibition in [5] came to 3%; in [6], 1%.
With `CNCc1ccc(-c2ncnc3[nH]cnc23)cc1`, the inhibition in [7] turned out to be 1.5%; in assay [8], 6.5%; in assay [9], 42%.
Take `NCCc1ccc(-c2ncnc3[nH]cnc23)cc1`: the inhibition stood at 0% in [10] and 72% in assay [11].
Consider `COC(=O)c1cnc(Nc2cnc(C#N)cn2)cc1NCC1CCNCC1`, for which the values for the inhibition in assay [12] and in assay [13] were 0.5% and 7%, respectively.
